Several values for one entry are separate records, joined by “and”; a condition that tells them apart may be missing. Equal entries are not always repeated.
Legend:
Mus musculus [1] = experiment: Analgesic activity in albino mouse assessed protection against acetic acid-induced abdominal writhing at 10 mg/kg, ip pretreated for 1 hr followed by acetic acid challenge and measured starting 5 mins post acetic acid challenge for 10 mins relative to indomethacin; assay type: functional; settings: time 75 min, 1.25 h
Rattus norvegicus [2] = experiment: Antiinflammatory activity in Wistar rat model of carrageenan-induced paw edema assessed as reduction in thickness of paw edema at 10 mg/kg, ip pretreated for 1 hr followed by carrageenan challenge and measured after 2 hrs (reference value: 2.06 +/-0.09 mm); assay type: functional; settings: time 3 hrs
Mus musculus [3] = experiment: Analgesic activity in albino mouse assessed as protection at 10 mg/kg, ip measured after 120 mins by hot plate test (reference value: 0 %); assay type: functional; settings: 2 h
Rattus norvegicus [4] = experiment: Anti-inflammatory activity in Wistar rat assessed as inhibition of carrageenan-induced paw edema at 10 mg/kg, ip pretreated for 1 hr followed by carrageenan challenge and measured after 3 hr relative to control (reference value: 0.00 +/-0.1 %); assay type: functional; settings: time 4 hrs
[5] = Toxicity in albino mouse assessed as induction of toxic symptoms at 50 to 100 mg/kg, ip measured after 24 hrs; assay type: organism-based; settings: in vivo, dose 50-100 mg/kg
Peritoneal macrophage [6] = experiment: Antiinflammatory activity in […] mouse Peritoneal macrophages assessed as reduction in LPS-induced NO production by measuring reduction in stimulation index at 10 uM preincubated for 1 hr followed by LPS stimulation measured after 24 hrs by Griess method (reference value: 27.31 +/- 2.56 uM); assay type: functional; settings: time 25 hrs
Streptococcus pyogenes = experiment: Antibacterial activity against Streptococcus pyogenes ATCC 19615 incubated for 18 hrs by agar dilution method; assay type: functional
Rattus norvegicus [7] = experiment: Anti-inflammatory activity in Wistar rat assessed as inhibition of carrageenan-induced paw edema at 10 mg/kg, ip pretreated for 1 hr followed by carrageenan challenge and measured after 24 hr relative to control (reference value: 0.00 +/-0.3 %); assay type: functional; settings: time 25 hrs
Rattus norvegicus [8] = experiment: Anti-inflammatory activity in Wistar rat assessed as inhibition of carrageenan-induced paw edema at 10 mg/kg, ip pretreated for 1 hr followed by carrageenan challenge and measured after 4 hr relative to control (reference value: 0.00 +/-0.4 %); assay type: functional; settings: time 5 hrs
MCF7 = experiment: Antiproliferative activity against human MCF7 cells assessed as inhibition of cell growth after 72 hrs by MTT assay; assay type: functional, cell-based; settings: MCF7, 72 h
Mus musculus [9] = experiment: Analgesic activity in albino mouse assessed as forepaw licking/jumping latency time at 10 mg/kg, ip measured after 60 mins by hot plate test (reference value: 3.42 +/- 0.03 sec); assay type: functional; settings: 1 h
[10] = Ulcerogenic activity in fasted albino mouse assessed as average severity of ulcers in gastric mucosa at 10 mg/kg, po for 3 days (reference value: 0); assay type: toxicity, organism-based; settings: in vivo, 72 h, time 3 day
Mus musculus [11] = experiment: Analgesic activity in albino mouse assessed as forepaw licking/jumping latency time at 10 mg/kg, ip measured after 90 mins by hot plate test (reference value: 2.72 +/- 0.01 sec); assay type: functional; settings: 1.5 h
A549 = experiment: Antiproliferative activity against human A549 cells assessed as inhibition of cell growth after 72 hrs by MTT assay; assay type: functional, cell-based; settings: A549, 72 h
Rattus norvegicus [12] = experiment: Anti-inflammatory activity in Wistar rat assessed as inhibition of carrageenan-induced paw edema at 10 mg/kg, ip pretreated for 1 hr followed by carrageenan challenge and measured after 4 hr relative to indomethacin; assay type: functional; settings: time 5 hrs
Mus musculus [13] = experiment: Analgesic activity in albino mouse assessed protection against acetic acid-induced abdominal writhing at 10 mg/kg, ip pretreated for 1 hr followed by acetic acid challenge and measured starting 5 mins post acetic acid challenge for 10 mins relative to control (reference value: 0 %); assay type: functional; settings: time 75 min, 1.25 h
PC-3 = experiment: Antiproliferative activity against human PC3 cells assessed as inhibition of cell growth after 72 hrs by MTT assay; assay type: functional, cell-based; settings: PC-3, 72 h
Rattus norvegicus [14] = experiment: Antiinflammatory activity in Wistar rat model of carrageenan-induced paw edema assessed as reduction in thickness of paw edema at 10 mg/kg, ip pretreated for 1 hr followed by carrageenan challenge and measured after 24 hrs (reference value: 0.83 +/-0.08 mm); assay type: functional; settings: time 25 hrs
Pseudomonas aeruginosa = experiment: Antibacterial activity against Pseudomonas aeruginosa ATCC 27853 incubated for 18 hrs by agar dilution assay; assay type: functional
[15] = Ulcerogenic activity in fasted albino mouse assessed as ulcer index in gastric mucosa at 10 mg/kg, po for 3 days (reference value: 0); assay type: toxicity, organism-based; settings: in vivo, 72 h, time 3 day
Rattus norvegicus [16] = experiment: Antiinflammatory activity in Wistar rat model of carrageenan-induced paw edema assessed as reduction in thickness of paw edema at 10 mg/kg, ip pretreated for 1 hr followed by carrageenan challenge and measured after 3 hrs (reference value: 1.79 +/-0.07 mm); assay type: functional; settings: time 4 hrs
Mus musculus [17] = experiment: Analgesic activity in albino mouse assessed as protection at 10 mg/kg, ip measured after 30 mins by hot plate test (reference value: 0 %); assay type: functional; settings: 0.5 h
Mus musculus [18] = experiment: Analgesic activity in albino mouse assessed as protection at 10 mg/kg, ip measured after 90 mins by hot plate test (reference value: 0 %); assay type: functional; settings: 1.5 h
[19] = Ulcerogenic activity in fasted albino mouse assessed as average number of ulcers in gastric mucosa at 10 mg/kg, po for 3 days (reference value: 0); assay type: toxicity, organism-based; settings: in vivo, 72 h, time 3 day
Rattus norvegicus [20] = experiment: Antiinflammatory activity in Wistar rat model of carrageenan-induced paw edema assessed as reduction in thickness of paw edema at 10 mg/kg, ip pretreated for 1 hr followed by carrageenan challenge and measured after 4 hrs (reference value: 1.40 +/-0.10 mm); assay type: functional; settings: time 5 hrs
Rattus norvegicus [21] = experiment: Anti-inflammatory activity in Wistar rat assessed as inhibition of carrageenan-induced paw edema at 10 mg/kg, ip pretreated for 1 hr followed by carrageenan challenge and measured after 1 hr relative to control (reference value: 0.00 +/-0.02 %); assay type: functional; settings: time 2 hrs
Mus musculus [22] = experiment: Analgesic activity in albino mouse assessed as forepaw licking/jumping latency time at 10 mg/kg, ip measured after 30 mins by hot plate test (reference value: 5.02 +/- 0.09 sec); assay type: functional; settings: 0.5 h
Mus musculus [23] = experiment: Analgesic activity in albino mouse assessed as forepaw licking/jumping latency time at 10 mg/kg, ip measured after 120 mins by hot plate test (reference value: 2.62 +/- 0.06 sec); assay type: functional; settings: 2 h
Mus musculus [24] = experiment: Analgesic activity in albino mouse assessed as protection at 10 mg/kg, ip measured after 60 mins by hot plate test (reference value: 0 %); assay type: functional; settings: 1 h
Candida albicans = experiment: Antifungal activity against Candida albicans incubated for 18 to 24 hrs by CLSI method; assay type: functional; settings: time 18-24 hrs
Staphylococcus aureus = experiment: Antibacterial activity against Staphylococcus aureus ATCC 25923 incubated for 18 hrs by agar dilution method; assay type: functional
Mus musculus [25] = experiment: Analgesic activity in albino mouse assessed as protection at 10 mg/kg, ip measured after 120 mins by hot plate test relative to indomethacin; assay type: functional; settings: 2 h
Rattus norvegicus [26] = experiment: Antiinflammatory activity in Wistar rat model of carrageenan-induced paw edema assessed as reduction in thickness of paw edema at 10 mg/kg, ip pretreated for 1 hr followed by carrageenan challenge and measured after 1 hr (reference value: 2.41 +/-0.05 mm); assay type: functional; settings: time 1 hr after carrageenan
Salmonella typhimurium = experiment: Antibacterial activity against Salmonella typhimurium ATCC 19430 incubated for 18 hrs by agar dilution assay; assay type: functional, Salmonella enterica subsp. enterica serovar Typhimurium; settings: Salmonella enterica
Mus musculus [27] = experiment: Analgesic activity in albino mouse assessed reduction in acetic acid-induced abdominal writhing by measuring writing reflex at 10 mg/kg, ip pretreated for 1 hr followed by acetic acid challenge and measured starting 5 mins post acetic acid challenge for 10 mins (reference value: 42.4 +/- 1.02); assay type: functional; settings: time 75 min, 1.25 h
Rattus norvegicus [28] = experiment: Anti-inflammatory activity in Wistar rat assessed as inhibition of carrageenan-induced paw edema at 10 mg/kg, ip pretreated for 1 hr followed by carrageenan challenge and measured after 2 hr relative to control (reference value: 0.00 +/-0.03 %); assay type: functional; settings: time 3 hrs
Splenocyte [29] = experiment: Immunomodulatory activity in Swiss albino mouse splenocytes assessed as cell viability at 10 uM by measuring stimulation index incubated for 72 hrs in presence of mitogenic stimulus phytohaemagglutinin by MTT assay (reference value: 1.00 +/- 0.24); assay type: functional
[30] = Ulcerogenic activity in fasted albino mouse assessed as incidence of gastric ulceration at 10 mg/kg, po for 3 days (reference value: 0 %); assay type: toxicity, organism-based; settings: in vivo, 72 h, time 3 day
Peritoneal macrophage [31] = experiment: Antiinflammatory activity in […] mouse Peritoneal macrophages assessed as inhibition of LPS-induced NO production at 10 uM preincubated for 1 hr followed by LPS stimulation measured after 24 hrs by Griess method relative to control (reference value: 0.0 %); assay type: functional; parameters: scale not given: the % may be the effect or the level left; settings: time 25 hrs
Splenocyte [32] = experiment: Immunomodulatory activity in Swiss albino mouse splenocytes assessed as cell viability at 10 uM by measuring inhibition of stimulation index incubated for 72 hrs in presence of mitogenic stimulus phytohaemagglutinin by MTT assay relative to indomethacin; assay type: functional; settings: read-out: Activity

Work on `COc1cc(/C=C/C(=O)/C=C(O)/C=C/c2ccc(OC(=O)[C@H](N)CCSC)c(OC)c2)ccc1OC(=O)[C@H](N)CCSC.Cl.Cl` yielded an Activity (Mus musculus [1]) of 86.5%, an Activity (Rattus norvegicus [2]) of 0.95 mm and an Activity (Mus musculus [3]) of 22.9%. The inhibition in vivo at 10 mg/kg (Rattus norvegicus [4]) was 65%, the Activity [5] was “Non-Toxic” and the Activity (Peritoneal macrophage [6]) was 13.77 µM. For the same molecule, the MIC (Streptococcus pyogenes) was 0.25 µg/mL and 0.355 µM, the inhibition in vivo at 10 mg/kg (Rattus norvegicus [7]) was 35% and the inhibition in vivo at 10 mg/kg (Rattus norvegicus [8]) was 98%. The IC50 (MCF7) was 10.2 µM, the Time (Mus musculus [9]) was 4.78 s and the Activity [10] was 0. For the same molecule, the Time (Mus musculus [11]) was 3.36 s, the IC50 (A549) was 20 µM and the inhibition in vivo at 10 mg/kg (Rattus norvegicus [12]) was 113%. It also gave an Activity (Mus musculus [13]) of 53.3%, an IC50 (PC-3) of 41.5 µM and an Activity (Rattus norvegicus [14]) of 0.54 mm. The MIC (Pseudomonas aeruginosa) was 1 µg/mL and 1.42 µM, the UI [15] was 0 and the Activity (Rattus norvegicus [16]) was 0.62 mm. The Activity (Mus musculus [17]) was 6.8%, the Activity (Mus musculus [18]) was 23.5% and the Activity [19] was 0. It also gave an Activity (Rattus norvegicus [20]) of 0.03 mm, an inhibition in vivo at 10 mg/kg (Rattus norvegicus [21]) of 59% and a Time (Mus musculus [22]) of 5.36 s. The Time (Mus musculus [23]) was 3.22 s, the Activity (Mus musculus [24]) was 39.8% and the MIC (Candida albicans) was 1 µg/mL and 1.42 µM. For the same molecule, the MIC (Staphylococcus aureus) was 0.125 µg/mL and 0.178 µM, the Activity (Mus musculus [25]) was 54.5% and the Activity (Rattus norvegicus [26]) was 0.99 mm. For the same molecule, the MIC (Salmonella typhimurium) was 0.25 µg/mL and 0.355 µM, the Activity (Mus musculus [27]) was 19.8 and the inhibition in vivo at 10 mg/kg (Rattus norvegicus [28]) was 54%. For the same molecule, the Activity_index (Splenocyte [29]) was 1.01, the Activity [30] was 0% and the Activity (Peritoneal macrophage [31]) was 49.57%. For the same molecule, the viability at 10 µM (Splenocyte [32]) was 120%.
